Experimental findings from patent US8809500B2, “Complexes comprising mammalian raptor polypeptide and mammalian mTOR polypeptide” (Whitehead Institute For Biomedical Research, priority 2002, dated 2014) are described below.

For one assay, the target named is T1, mTOR-raptor complex (Homo sapiens, UniProt P42345+P62942).
T1 construct: endogenous in cells
Kind of assay: mTOR-raptor interaction: raptor co-precipitated in mTOR immunoprecipitates (western blot). The assay is classed as cell-based. Particulars: for effect on mTOR-raptor interaction (complex stability): cells treated for 10 minutes: 500 mM sucrose, 1 mM H2O2, 1 μm valinomycin A, 100 mM 2-deoxyglucose. From the text: Unless otherwise stated, for mTOR immunoprecipitates prepared in the absence of the cross-linker, cells were lysed in ice-cold Buffer B (Buffer A in which Triton X-100 is replaced by 0.3% CHAPS) and immunoprecipitates were washed four times in Buffer B and twice in Wash Buffer 2.
Background: In western blotting, separated proteins are transferred to a membrane and probed.

For the next assay, the target named is T2, mTOR (Homo sapiens, UniProt P42345).
T2 construct: the kinase activity of immunoprecipitates of endogenous mTOR depends on the presence of mTOR; endogenous in cells; host or cells: HEK293T
Kind of assay: In vitro kinase assay for mTOR activity, endogenous mTOR immunoprecipitates, GST-S6K1 substrate. To be noted: for effect on mTOR kinase activity of mTOR immunoprecipitates from treated cells: cells treated for 10 minutes: 500 mM sucrose, 1 mM H2O2, 1 μm valinomycin A, 100 mM 2-deoxyglucose; for sensitivity of kinase activity of immunoprecipitates of endogenous mTOR: 20 μM inhibitor, added 10 minutes prior to kinase assay. Format: biochemical. As to the method: FIG. 8A is a gel showing deprivation of amino acids, leucine, or glucose increases the stability of raptor-mTOR complex and decreases mTOR kinase activity, effects reversed by stimulation with leucine or glucose. HEK293T cells were incubated for 50 minutes in RPMI lacking amino acids (−amino acids), leucine (−leucine), or glucose (−glucose) or left untreated (control). Duplicate plates of cells deprived of leucine or glucose were stimulated for 10 minutes with 52 μg/ml leucine (−leu+leu) or 11 mM glucose (−gluc+gluc), respectively. Cells were lysed, anti-mTOR immunoprecipitates prepared, and mTOR kinase activity determined with in vitro kinase assays containing ATP-[γ-^32P] and a GST-S6K1 fusion protein (Burnett et al., PNAS 95:1432-1437 (1998)). Kinase reactions were resolved by SDS-PAGE, proteins transferred to PVDF, ^32P-incorporation into GST-S6K1 detected with autoradiography (third panel from top) and levels of mTOR (top panel) and raptor (middle panel) determined by immunoblotting. Western blot analyses of cell lysates used to prepare mTOR immunoprecipitates showing effects of nutrient conditions on the phosphorylation state and gel mobility of S6K1 in vivo (bottom two panels).
Kinase assays were performed in a volume of 10 μl at 30° C. for 20 min and contained ¼ the washed mTOR immunoprecipitates from 10 million HEK293T cells growing on a 10-cm dish, 200 ng of a GST-S6K1 fusion protein (amino acids 332-502), 1 μCi of [γ-^32P]ATP, 25 mM Hepes-KOH, pH 7.4, 50 mM KCl, 20% glycerol, 10 mM MgCl2, 4 mM MnCl2, 1 mM DTT, and 50 μM unlabeled ATP. When inhibitors were used they were added to the mTOR immunoprecipitates 10 minutes prior to the start of the kinase assay. Reactions were stopped by the addition of 5 μl of 2× sample buffer. After boiling the samples for 3 min, proteins were resolved by 8% SDS-PAGE, transferred to PVDF (poly(vinylidene difluoride)), and phosphorylated proteins visualized with autoradiography. The same blots were then used to determine the levels of mTOR and raptor by western analysis. Kinase assays using recombinant mTOR were performed as described in Burnett et al., PNAS, 95:1432-1437 (1998), except that they were washed as above with Buffer B.

Another assay relates to S6K1. Kind of assay: In vivo phosphorylation state of S6K1 (T389) in cell lysates by western blot. The assay is classed as cell-based, human.
The test system of assay [1] is HEK293T cells. Kind of assay: Cell size determination in actively growing cells (Coulter Multisizer II). Particulars: three days after siRNA transfection or 20 nM rapamycin for 48 hours.
Description: Cell diameters and volumes were determined three days after transfection using a particle size counter (Coulter Multisizer II). […] Mean±S.D. values were obtained from the indicated numbers of independent trials in which at least 10,000 cells were analyzed per trial.
(§1) Cells were then harvested, diluted 1:10 or 1:20 and replated in fresh media. At 1, 2, and 3 days after replating, the cells were harvested by trypsinization in 2 ml media, diluted 1:20 with counting solution (Isoflow Sheath Fluid, Coulter Corp.) and cell diameters and volumes determined using a particle size counter (Coulter Multisizer II). Cells between 11 and 21 μm in diameter were used for analysis. For the leucine-induced growth experiment, the siRNA transfected cells were diluted into fresh media one day after transfection and, at 24 hours after dilution the cells were deproved of leucine for a further 24 hours. The cells were then provided with leucine (52 μg/ml) and cell diameters, volumes, and numbers determined as above at 6 and 10 hours after the leucine supplementation.
The test system of assay [2] is HEK293T cells. Kind of assay: Leucine-induced growth experiment (cell size after leucine re-addition). Particulars: HEK293T deprived of leucine 24 hours, then leucine 52 μg/ml; size at 6 and 10 hours; rapamycin added with leucine.
Description: Cells were transfected with the indicated siRNAs and the experiment performed as described herein. […] Shown are mean±S.D. from samples for each time point.
as §1
Leucine was then added to the media and cell size measured at 6 and 10 hours after leucine addition.
Setting [3] is: insulin 200 nM for 25 minutes, HEK293T in serum-free media for 24 hours.

As to `CC(C)[C@@H]1NC(=O)[C@H](C)OC(=O)[C@@H](C(C)C)NC(=O)[C@@H](C(C)C)OC(=O)[C@H](C(C)C)NC(=O)[C@H](C)OC(=O)[C@@H](C(C)C)NC(=O)[C@@H](C(C)C)OC(=O)[C@H](C(C)C)NC(=O)[C@H](C)OC(=O)[C@@H](C(C)C)NC(=O)[C@@H](C(C)C)OC1=O` [valinomycin], the “effect on mTOR-raptor interaction (complex stability)” value (shortened to “effect … (complex stability)”) on mTOR-raptor complex is recorded as “stabilized the mTOR-raptor interaction”. Moreover, the “effect on mTOR kinase activity of mTOR immunoprecipitates from treated cells” value (“effect on mTOR kinase activity” below) at mTOR is “inhibited mTOR kinase activity”. On to insulin, for which the “effect on mTOR-raptor interaction” value with mTOR-raptor complex (setting [3]) is reported as “did not affect the raptor-mTOR interaction”. Further, the “effect on phosphorylation state of S6K1” value with S6K1 (setting [3]) is listed as “increased the phosphorylation state of S6K1”. `CNCCNS(=O)(=O)c1cccc2cnccc12` [H-8]: the “sensitivity of kinase activity of immunoprecipitates of endogenous mTOR” value at mTOR is “not”. With `OO` [H2O2], on mTOR-raptor complex, the “effect … (complex stability)” value was “stabilized the interaction”. The “effect on mTOR kinase activity” value at mTOR was “inhibited the mTOR kinase”. For `OC[C@H]1O[C@@](CO)(O[C@H]2O[C@H](CO)[C@@H](O)[C@H](O)[C@H]2O)[C@@H](O)[C@@H]1O` [sucrose], at mTOR-raptor complex, the “effect … (complex stability)” value is listed as “only a modest effect”. Further, in the assay on S6K1 (cells treated for 10 minutes with 500 mM sucrose), the “effect on phosphorylation state of S6K1” value is “decreased the phosphorylation state of S6K1”. Further, the “effect on mTOR kinase activity” value on mTOR was “only a modest effect”. antimycin A: on mTOR-raptor complex, the “effect … (complex stability)” value was “stabilized the mTOR-raptor interaction”. Besides, the “effect on mTOR kinase activity” value at mTOR was “inhibited mTOR kinase activity”.

Consider `COc1cccc(-c2cc(=O)c3ccccc3o2)c1N` [PD98059], for which the “sensitivity of kinase activity of immunoprecipitates of endogenous mTOR” value at mTOR is given as “not”. As for `O=CC[C@@H](O)[C@H](O)[C@H](O)CO` [2-deoxyglucose], the “effect … (complex stability)” value on mTOR-raptor complex is on record as “stabilized the mTOR-raptor interaction”. In addition, at mTOR, the “effect on mTOR kinase activity” value is “inhibited mTOR kinase activity”. For `CO[C@H]1C[C@@H]2CC[C@@H](C)[C@@](O)(O2)C(=O)C(=O)N2CCCC[C@H]2C(=O)O[C@H]([C@H](C)C[C@@H]2CC[C@@H](O)[C@H](OC)C2)CC(=O)[C@H](C)/C=C(\C)[C@@H](O)[C@@H](OC)C(=O)[C@H](C)C[C@H](C)/C=C/C=C/C=C/1C` [rapamycin], the “cell diameter, mean±S.D.” value with HEK293T cells [1] is reported as 14.61±0.10 μm. Moreover, in the assay with HEK293T cells [2], the “growth rate after leucine addition” value is reported as 1.02 % volume per hour.
